Reference: patent US8119624B2, “Fused phenyl amido heterocyclic compounds” (Pfizer Inc., priority 2006, dated 2012)

Target: T1, Full-length glucokinase (beta cell isoform) (Homo sapiens, UniProt P35557)
T1 construct: Full-length glucokinase (beta cell isoform) was His-tagged at N-terminus; His tag (N); made in house
T1 sequence (P35557 1-465): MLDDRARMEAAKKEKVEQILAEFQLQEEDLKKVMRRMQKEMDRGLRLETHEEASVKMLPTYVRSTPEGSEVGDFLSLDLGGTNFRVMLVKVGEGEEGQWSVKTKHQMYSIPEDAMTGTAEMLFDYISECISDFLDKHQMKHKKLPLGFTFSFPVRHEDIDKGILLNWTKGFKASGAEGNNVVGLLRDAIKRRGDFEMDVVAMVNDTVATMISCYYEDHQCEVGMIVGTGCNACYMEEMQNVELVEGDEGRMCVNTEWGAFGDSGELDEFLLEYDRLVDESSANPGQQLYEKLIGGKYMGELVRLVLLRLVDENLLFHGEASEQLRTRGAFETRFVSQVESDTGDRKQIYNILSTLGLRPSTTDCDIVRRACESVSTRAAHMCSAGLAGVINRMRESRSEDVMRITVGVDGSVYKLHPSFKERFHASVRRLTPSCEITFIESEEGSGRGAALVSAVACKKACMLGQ
Experiment: Glucokinase biochemical assay (PK/LDH-coupled, NADH depletion at 340 nm): % activation, EC50, % max activation
Conditions: 5 mM glucose; for activation at 10 µM: 10 uM compound, % Activation=(Va/Vo−1)×100, read-out: % Activation at 10 uM; for EC50: GK activation, read-out: EC50; for Emax: fitted maximum activation, read-out: % Max Activation
Procedure, shortened: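 N-terminally His-tagged full-length human beta-cell glucokinase, room temperature, 5 mM glucose, 1 mM ATP, PK/LDH-coupled with 0.7 mM NADH, 1% DMSO final. Initial velocity from the 200–900 s slope of A340 decline. % activation = (Va/Vo−1)×100, measured across compound concentrations.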

Structure (SMILES) | activation at 10 µM | EC50 | Emax
Cc1cc2c(Oc3ccc(S(C)(=O)=O)cc3)cc(C(=O)Nc3ccc(C(F)(F)F)cn3)cc2o1 [Example 253, 2-Methyl-4-(4-(methylsulfonyl)phenoxy)-N-(5-(trifluoromethyl)-pyridin-2-yl)benzofuran-6-carboxamide] | 32.1% |  | 
Cc1cc2c(Oc3ccc(S(C)(=O)=O)cc3)cc(C(=O)Nc3ccc4c(n3)CCC4)cc2o1 [Example 254, N-(6,7-Dihydro-5H-cyclopenta[b]pyridin-2-yl)-2-methyl-4-(4-(methylsulfonyl)-phenoxy)benzofuran-6-carboxamide] | 53.3% | 3400 nM | 71%
Cc1cc(NC(=O)c2cc(Oc3ccc(S(C)(=O)=O)cc3)c3cc(C)oc3c2)no1 [Example 255, 2-Methyl-N-(5-methylisoxazol-3-yl)-4-(4-(methylsulfonyl)-phenoxy)-benzofuran-6-carboxamide] | 18.8% |  | 
Cc1cc2c(Oc3ccc(S(C)(=O)=O)cc3)cc(C(=O)Nc3ccc(F)cn3)cc2o1 [Example 256, N-(5-Fluoropyridin-2-yl)-2-methyl-4-(4-(methylsulfonyl)-phenoxy)benzofuran-6-carboxamide] | 89.2% | 4500 nM | 126%
Cc1cc2c(Oc3ccc(S(C)(=O)=O)cc3)cc(C(=O)Nc3ccon3)cc2o1 [Example 258, N-(Isoxazol-3-yl)-2-methyl-4-(4-(methylsulfonyl)phenoxy)-benzofuran-6-carboxamide] | 99.7% | 5800 nM | 142%
Cc1cc2c(Oc3ccc(S(C)(=O)=O)cc3)cc(C(=O)Nc3ccc(Cl)cn3)cc2o1 [Example 260, N-(5-chloropyridin-2-yl)-2-methyl-4-(4-(methylsulfonyl)-phenoxy)benzofuran-6-carboxamide] | 53.1% | 2900 nM | 69%
Cc1cc2c(Oc3ccc(S(C)(=O)=O)cc3)cc(C(=O)Nc3ccc(C#N)cn3)cc2o1 [Example 261, N-(5-cyanopyridin-2-yl)-2-methyl-4-(4-(methylsulfonyl)-phenoxy)benzofuran-6-carboxamide] | 58.8% | 7900 nM | 81%
Cc1cc2c(Oc3ccc(S(C)(=O)=O)cc3)cc(C(=O)Nc3cccc(CO)n3)cc2o1 [Example 268, N-(6-(Hydroxymethyl)pyridin-2-yl)-2-methyl-4-(4-(methylsulfonyl)phenoxy)-benzofuran-6-carboxamide] | 6.4% | > 10000 nM | 
Cc1cc2c(Oc3ccc(S(C)(=O)=O)cc3)cc(C(=O)Nc3cccc(C(C)O)n3)cc2o1 (stereo not shown) [Example 269, N-(6-(1-Hydroxyethyl)pyridin-2-yl)-2-methyl-4-(4-(methylsulfonyl)phenoxy)-benzofuran-6-carboxamide] | 34.8% | 7000 nM | 59%
CCOc1ccc(NC(=O)c2cc(Oc3ccc(S(C)(=O)=O)cc3)c3cc(C)oc3c2)nc1 [Example 270, N-(5-ethoxypyridin-2-yl)-2-methyl-4-(4-(methylsulfonyl)-phenoxy)benzofuran-6-carboxamide] | 98.2% | 7100 nM | 139%
Cc1ccc(NC(=O)c2cc(Oc3ccc(C(=O)N(C)C)c(F)c3)c3cc(C)oc3c2)nc1 [Example 273, 4-(4-(Dimethylcarbamoyl)-3-fluorophenoxy)-2-methyl-N-(5-methylpyridin-2-yl)benzofuran-6-carboxamide] | 12.7% |  | 
CCc1cc2c(Oc3ccc(S(C)(=O)=O)cc3)cc(C(=O)Nc3ccn(C)n3)cc2o1 [Example 275, 2-Ethyl-N-(1-methyl-1H-pyrazol-3-yl)-4-[4-(methylsulfonyl)-phenoxy]-1-benzofuran-carboxamide] | 211% | 2600 nM | 210%
CCc1cc2c(Oc3ccc(C(=O)N(C)C)cc3)cc(C(=O)Nc3ccc(C)cn3)cc2o1 [Example 276, 4-{4-[(Dimethylamino)carbonyl]phenoxy}-2-ethyl-N-(5-methylpyridin-2-yl)-1-benzofuran-6-carboxamide] | 20% |  | 
Cc1ccc(NC(=O)c2cc(Oc3ccc(C(=O)N(C)C)nc3)c3cc(C)oc3c2)nc1 [Example 277, N,N-Dimethyl-5-[(2-methyl-6-{[(5-methylpyridin-2-yl)amino]-carbonyl}-1-benzofuran-4-yl)oxy]pyridine-2-carboxamide] | 34.2% |  | 

Continued by falling EC50, values first:

activation at 10 µM | EC50 | Emax | Structure (SMILES)
131% | 2400 nM | 121% | CCc1cc2c(Oc3ccc(S(C)(=O)=O)cc3)cc(C(=O)Nc3ccc(C)cn3)cc2o1 [Example 274, 2-Ethyl-N-(5-methylpyridin-2-yl)-4-[4-(methylsulfonyl)-phenoxy]-1-benzofuran-6-carboxamide]
94.2% | 1700 nM | 74% | CCc1ccc(NC(=O)c2cc(Oc3ccc(S(C)(=O)=O)cc3)c3cc(C)oc3c2)nc1 [Example 265, N-(5-Ethylpyridin-2-yl)-2-methyl-4-(4-(methylsulfonyl)-phenoxy)benzofuran-6-carboxamide]
145% | 1700 nM | 165% | Cc1cc2c(Oc3ccc(S(C)(=O)=O)cc3)cc(C(=O)Nc3cnn(C)n3)cc2o1 [Example 267, 2-Methyl-N-(2-methyl-2H-1,2,3-triazol-4-yl)-4-(4-(methylsulfonyl)phenoxy)-benzofuran-6-carboxamide]
111% | 1400 nM | 119% | Cc1cc2c(Oc3ccc(S(C)(=O)=O)cc3)cc(C(=O)Nc3ccccn3)cc2o1 [Example 257, 2-Methyl-4-(4-(methylsulfonyl)phenoxy)-N-(pyridin-2-yl)-benzofuran-6-carboxamide]
80.5% | 1300 nM | 79% | COC(=O)c1ccc(NC(=O)c2cc(Oc3ccc(S(C)(=O)=O)cc3)c3cc(C)oc3c2)nc1 [Example 264, Methyl 6-(2-methyl-4-(4-(methylsulfonyl)phenoxy)benzofuran-6-carboxamido)nicotinate]
148% | 1300 nM | 184% | Cc1cc2c(Oc3ccc(S(C)(=O)=O)cc3)cc(C(=O)Nc3ccn(C)n3)cc2o1 [Example 271, 4-(4-(Methylsulfonyl)phenoxy)-2-methyl-N-(1-methyl-1H-pyrazol-3-yl)benzofuran-6-carboxamide]
63.6% | 1000 nM | 60% | COc1ccnc(NC(=O)c2cc(Oc3ccc(S(C)(=O)=O)cc3)c3cc(C)oc3c2)c1 [Example 259, N-(4-Methoxypyridin-2-yl)-2-methyl-4-(4-(methylsulfonyl)-phenoxy)-benzofuran-6-carboxamide]
81.4% | 1000 nM | 91% | Cc1cc2c(Oc3ccc(S(C)(=O)=O)cc3)cc(C(=O)Nc3ccc(CO)cn3)cc2o1 [Example 266, N-(5-(Hydroxymethyl)pyridin-2-yl)-2-methyl-4-(4-(methylsulfonyl)-phenoxy)-benzofuran-6-carboxamide]
157% | 840 nM | 146% | COc1cnc(NC(=O)c2cc(Oc3ccc(S(C)(=O)=O)cc3)c3cc(C)oc3c2)cn1 [Example 263, N-(5-methoxypyrazin-2-yl)-2-methyl-4-(4-(methylsulfonyl)-phenoxy)-benzofuran-6-carboxamide]
151% | 780 nM | 137% | Cc1cc2c(Oc3ccc(S(C)(=O)=O)cc3)cc(C(=O)Nc3cnc(N(C)C)cn3)cc2o1 [Example 262, N-(5-(Dimethylamino)pyrazin-2-yl)-2-methyl-4-(4-(methylsulfonyl)-phenoxy)-benzofuran-6-carboxamide]
108% | 778 nM | 107% | Cc1ccc(NC(=O)c2cc(Oc3ccc(S(C)(=O)=O)cc3)c3cc(C)oc3c2)nc1 [Example 252, 2-Methyl-N-(5-methylpyridin-2-yl)-4-(4-(methylsulfonyl)-phenoxy)-benzofuran-6-carboxamide]
131% | 470 nM | 123% | Cc1cc2c(Oc3ccc(C(=O)N(C)C)nc3)cc(C(=O)Nc3cnn(C)n3)cc2o1 [Example 278, N,N-Dimethyl-5-(2-methyl-6-((2-methyl-2H-1,2,3-triazol-4-yl)carbamoyl)-benzofuran-4-yloxy)picolinamide]
141% | 430 nM | 169% | Cn1ccc(NC(=O)c2cc(Oc3ccc(S(C)(=O)=O)cc3)c3c(c2)OC(C)(CF)C3)n1 (stereo not shown) [Example 251, 2-Fluoromethyl-4-(4-methanesulfonyl-phenoxy)-2-methyl-2,3-dihydro-benzofuran-6-carboxylic acid (1-methyl-1H-pyrazol-3-yl)-amide]
49.6% | 310 nM | 51% | Cc1cc2c(Oc3ccc(C(=O)N(C)C)c(F)c3)cc(C(=O)Nc3ccn(C)n3)cc2o1 [Example 272, 4-(4-(Dimethylcarbamoyl)-3-fluorophenoxy)-2-methyl-N-(1-methyl-1H-pyrazol-3-yl)benzofuran-6-carboxamide]
